Tested on: Acinetobacter baumannii ATCC17978
Experiment: Antimicrobial susceptibility testing: 90% growth inhibitory concentration (IC90) determination
Format: cell-based
Settings: ATCC17978, 90% growth inhibitory concentration, Iso-Sensitest broth, optical density at 600 nm over 16h, 35±2° C., read-out: AB ATCC 17978 IC90
Protocol: Antimicrobial Susceptibility Testing:
90% Growth Inhibitory Concentration (IC90) Determination
The in vitro antimicrobial activity of the compounds was determined according to the following procedure:
The assay used a 10-points Iso-Sensitest broth medium to measure quantitatively the in vitro activity of the compounds against Acinetobacter baumannii ATCC17961 or ATCC17978.
Stock compounds in DMSO were serially twofold diluted (e.g. range from 50 to 0.097 μM final concentration) in 384 wells microtiter plates and inoculated with 49 μl the bacterial suspension in Iso-Sensitest medium to have a final cell concentration of ˜5×10^(5) CFU/ml in a final volume/well of 50 ul/well. Microtiter plates were incubated at 35±2° C.
Bacterial cell growth was determined with the measurement of optical density at λ=600 nm each 20 minutes over a time course of 16h. Growth inhibition was calculated during the logarithmic growth of the bacterial cells with determination of the concentration inhibiting 50% (IC50) and 90% (IC90) of the growth.
Table 1 provides the 90% growth inhibitory concentrations (IC90) in micromoles per liter of the compounds of present invention obtained against the strain Acinetobacter baumannii ATCC17978.

Compound | IC90 [nM]
CCN1CCN(CC(=O)Nc2ccc(Nc3nccn4c(-c5ccc(OC(F)F)cc5)cnc34)cc2C)CC1 [Example 55, N-(4-((3-(4-(difluoromethoxy)phenyl)imidazo[1,2-a]pyrazin-8-yl)amino)-2-methylphenyl)-2-(4-ethylpiperazin-1-yl)acetamide] | 280
CC(=O)Nc1ccc(Nc2nccn3c(-c4ccc(F)cc4F)cnc23)cc1C [Example 83, N-(4-((3-(2,4-difluorophenyl)imidazo[1,2-a]pyrazin-8-yl)amino)-2-methylphenyl)acetamide] | 700
CC1CCC(=O)N1c1ccc(Nc2nccn3c(-c4ccc(OC(F)F)cc4)cnc23)cc1 (stereo not drawn) [Example 95, 1-(4-((3-(4-(difluoromethoxy)phenyl)imidazo[1,2-a]pyrazin-8-yl)amino)phenyl)-5-methylpyrrolidin-2-one] | 380
Cc1cc(Nc2nccn3c(-c4ccc(Cl)cc4)cnc23)ccc1N1CCCC1=O [Example 60, 1-(4-((3-(4-chlorophenyl)imidazo[1,2-a]pyrazin-8-yl)amino)-2-methylphenyl)pyrrolidin-2-one] | 760
Cc1cc(Nc2nccn3c(-c4ccc(OC(F)F)cc4)cnc23)ccc1CO [Example 121, (4-((3-(4-(difluoromethoxy)phenyl)imidazo[1,2-a]pyrazin-8-yl)amino)-2-methylphenyl) methanol] | 670
COc1ccc(-c2cnc3c(Nc4ccc(S(=O)(=O)N5CCN(C)CC5)cc4)nccn23)cc1 [Example 79, 3-(4-methoxyphenyl)-N-(4-((4-methylpiperazin-1 - yl)sulfonyl)phenyl) imidazo[1,2-a]pyrazin-8-amine] | 850

Further lines, results first:

IC90 [nM] | Compound
820 | CC(=O)Nc1ccc(Nc2nccn3c(-c4ccc(OC(F)F)cc4)cnc23)cc1 [Example 8, N-[4-[[3-[4-(difluoromethoxy)phenyl]imidazo [1,2-a]pyrazin-8-yl]amino]phenyl] acetamide]
430 | COc1ccc(-c2cnc3c(Nc4ccc(NC(C)=O)cc4)nccn23)cc1Cl [Example 17, N-(4-((3-(3-chloro-4-methoxyphenyl)imidazo[1,2-a]pyrazin-8-yl)amino)phenyl)acetamide]
130 | COc1ccc(-c2cnc3c(Nc4ccc(NC(C)=O)c(C)c4)nccn23)cc1F [Example 47, N-(4-((3-(3-fluoro-4-methoxyphenyl)imidazo[1,2-a]pyrazin-8-yl)amino)-2-methylphenyl)acetamide]
340 | COc1ccc(-c2cnc3c(Nc4ccc(N5CCCC5=O)cc4)nccn23)cc1Cl [Example 9, 1-[4-[[3-(3-chloro-4-methoxy-phenyl)imidazo [1,2-a]pyrazin-8-yl]amino]phenyl] pyrrolidin-2-one; 2,2,2-trifluoroacetic acid]
200 | CCc1cc(Nc2nccn3c(-c4ccc(OC)cc4)cnc23)ccc1NC(C)=O [Example 38, N-(2-ethyl-4-((3-(4-methoxyphenyl)imidazo[1,2-a]pyrazin-8-yl)amino)phenyl)acetamide]
160 | CCc1cc(Nc2nccn3c(-c4ccc(OC)c(Cl)c4)cnc23)ccc1NC(C)=O [Example 45, N-(4-((3-(3-chloro-4-methoxyphenyl)imidazo[1,2-a]pyrazin-8-yl)amino)-2-ethylphenyl)acetamide]
890 | CC(=O)Nc1ccc(Nc2nccn3c(-c4ccc(F)c(F)c4F)cnc23)cc1 [Example 82, N-(4-((3-(2,3,4-trifluorophenyl)imidazo[1,2-a]pyrazin-8-yl)amino)phenyl)acetamide]
820 | COc1ccc(-c2cnc3c(Nc4ccc(NC(=O)CO)cc4)nccn23)cc1Cl [Example 10, N-[4-[[3-(3-chloro-4-methoxy-phenyl)imidazo [1,2-a]pyrazin-8-yl]amino]phenyl]-2-hydroxy-acetamide; 2,2,2-trifluoroacetic acid]
750 | COc1ccc(-c2cnc3c(Nc4ccc(NC(=O)CCl)cc4)nccn23)cc1 [Example 51, 2-chloro-N-(4-((3-(4-methoxyphenyl)imidazo[1,2-a]pyrazin-8-yl)amino)phenyl)acetamide]
